Results: ChEMBL document CHEMBL5729244, “Heterocycle compounds as Tyro3, Axl and MerTK (TAM) family of receptor tyrosine kinase inhibitors” (2022)

Assays:
[1] = molecular target: T1, Tyrosine-protein kinase Mer (Homo sapiens, UniProt Q12866)
T1 sequence (Q12866 whole entry): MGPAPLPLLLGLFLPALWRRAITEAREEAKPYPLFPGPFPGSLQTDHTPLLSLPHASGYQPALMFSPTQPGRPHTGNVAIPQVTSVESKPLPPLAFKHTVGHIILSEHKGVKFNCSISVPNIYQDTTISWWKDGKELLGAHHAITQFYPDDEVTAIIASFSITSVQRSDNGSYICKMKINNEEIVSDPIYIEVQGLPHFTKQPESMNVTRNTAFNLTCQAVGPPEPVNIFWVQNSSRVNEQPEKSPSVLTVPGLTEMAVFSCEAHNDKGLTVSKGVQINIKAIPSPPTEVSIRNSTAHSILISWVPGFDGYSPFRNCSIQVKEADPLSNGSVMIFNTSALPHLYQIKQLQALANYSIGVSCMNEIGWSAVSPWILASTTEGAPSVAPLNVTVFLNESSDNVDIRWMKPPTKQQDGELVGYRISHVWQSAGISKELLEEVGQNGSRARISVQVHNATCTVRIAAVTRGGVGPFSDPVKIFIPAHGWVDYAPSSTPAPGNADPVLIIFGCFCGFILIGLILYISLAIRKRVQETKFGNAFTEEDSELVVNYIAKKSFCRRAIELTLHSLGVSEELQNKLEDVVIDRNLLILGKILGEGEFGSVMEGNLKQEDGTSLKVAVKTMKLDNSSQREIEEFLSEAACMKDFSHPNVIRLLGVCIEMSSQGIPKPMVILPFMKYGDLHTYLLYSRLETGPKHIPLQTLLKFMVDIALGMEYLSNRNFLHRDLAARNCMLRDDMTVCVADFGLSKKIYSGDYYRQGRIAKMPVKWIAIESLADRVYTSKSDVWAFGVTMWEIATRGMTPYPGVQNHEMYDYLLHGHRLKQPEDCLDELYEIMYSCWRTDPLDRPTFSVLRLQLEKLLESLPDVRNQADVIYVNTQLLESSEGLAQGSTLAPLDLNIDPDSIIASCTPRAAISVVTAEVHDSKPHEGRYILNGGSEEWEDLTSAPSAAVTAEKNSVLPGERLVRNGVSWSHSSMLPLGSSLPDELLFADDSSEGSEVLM

[2] = molecular target: T2, Tyrosine-protein kinase receptor UFO (Homo sapiens, UniProt P30530)
T2 sequence (P30530 whole entry): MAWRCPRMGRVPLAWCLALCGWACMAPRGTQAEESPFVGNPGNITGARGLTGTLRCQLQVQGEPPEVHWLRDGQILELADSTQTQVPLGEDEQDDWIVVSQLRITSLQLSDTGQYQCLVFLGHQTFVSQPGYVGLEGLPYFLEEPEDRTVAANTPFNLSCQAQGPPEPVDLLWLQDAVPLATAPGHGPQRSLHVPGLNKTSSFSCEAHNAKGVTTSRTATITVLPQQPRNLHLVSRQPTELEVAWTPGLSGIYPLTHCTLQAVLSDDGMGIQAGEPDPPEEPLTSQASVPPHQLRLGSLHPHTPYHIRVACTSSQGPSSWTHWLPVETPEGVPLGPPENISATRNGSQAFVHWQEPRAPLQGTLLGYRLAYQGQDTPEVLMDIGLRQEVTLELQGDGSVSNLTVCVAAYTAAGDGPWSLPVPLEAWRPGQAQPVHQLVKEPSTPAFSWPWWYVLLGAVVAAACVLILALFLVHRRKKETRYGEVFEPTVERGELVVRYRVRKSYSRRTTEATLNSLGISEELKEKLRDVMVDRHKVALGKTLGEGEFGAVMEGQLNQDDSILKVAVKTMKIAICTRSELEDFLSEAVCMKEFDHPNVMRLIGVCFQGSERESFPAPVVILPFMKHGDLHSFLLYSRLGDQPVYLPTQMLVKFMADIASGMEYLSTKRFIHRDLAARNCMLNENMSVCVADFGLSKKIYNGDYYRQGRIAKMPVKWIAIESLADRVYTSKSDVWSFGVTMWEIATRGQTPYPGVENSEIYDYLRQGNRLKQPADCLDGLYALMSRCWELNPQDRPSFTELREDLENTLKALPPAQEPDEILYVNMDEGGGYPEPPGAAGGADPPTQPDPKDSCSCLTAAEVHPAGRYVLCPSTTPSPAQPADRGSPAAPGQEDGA

| IC50 [1] | IC50 [2] | Compound |
| --- | --- | --- |
| > 1000 nM | < 30 nM | COCCOc1nc(Nc2ccc(CN3CCN(C)CC3)cc2)nc2[nH]cc(-c3ccc4c(n3)CN(C)S4(=O)=O)c12 |
| – | < 30 nM | COc1nc(Nc2ccc(CN3CCC(C)CC3)cc2)nc2[nH]cc(-c3ccc(F)cc3F)c12 |
